# According to PubChem BioAssay AID330 (DTP/NCI, 2004):
# Several values for one entry are separate records, joined by “and”; a condition that tells them apart may be missing. Identical values can stand only once. Inconclusive results and toxic doses are left out.
# System: P388 leukemia ip, CD2F1 mice, survival T/C
# Assay: NCI In Vivo Anticancer Drug Screen. Data for tumor model P388 Leukemia (intraperitoneal) in CD2F1 (CDF1) mice
# Settings: endpoint: median survival time, higher = longer survival
# Outline: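 Mice carrying the transplanted tumor received test compound or vehicle. Survival was recorded in each group, and the value is the treated-group measurement divided by that of the vehicle-treated control group.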
# [1] = dose: 50.0 mg/kg/injection, schedule: Q01DX005 (ip), vehicle: saline
# [2] = dose: 200.0 mg/kg/injection, schedule: Q01DX009 (ip), vehicle: saline
# [3] = dose: 50.0 mg/kg/injection, schedule: Q01DX009 (ip), vehicle: Klucel (hydroxypropylcellulose) (HPC)
# [4] = dose: 100.0 mg/kg/injection, schedule: Q01DX009 (ip), vehicle: Klucel (hydroxypropylcellulose) (HPC)
# [5] = dose: 200.0 mg/kg/injection, schedule: Q01DX009 (ip), vehicle: Klucel (hydroxypropylcellulose) (HPC)
# [6] = dose: 100.0 mg/kg/injection, schedule: Q01DX005 (ip), vehicle: saline
# [7] = dose: 200.0 mg/kg/injection, schedule: Q01DX005 (ip), vehicle: saline
# [8] = dose: 50.0 mg/kg/injection, schedule: Q01DX009 (ip), vehicle: saline
compound,measurement,setting,value
CCOC(=O)C(N)CSC(=O)NC (stereo not drawn),T/C,"dose: 10.4 mg/kg/injection, schedule: Q03HX024 (ip), vehicle: saline",118 % of control
same,T/C,"dose: 20.8 mg/kg/injection, schedule: Q03HX024 (ip), vehicle: saline",124 % of control
same,T/C,"dose: 25.0 mg/kg/injection, schedule: Q01DX005 (ip), vehicle: saline",108 % of control
same,T/C,"dose: 27.7 mg/kg/injection, schedule: Q01DX009 (ip), vehicle: saline",119 % of control
same,T/C,"dose: 27.7 mg/kg/injection, schedule: Q01DX009 (oral), vehicle: saline",109 % of control
same,T/C,"dose: 31.2 mg/kg/injection, schedule: Q03HX008 (ip), vehicle: saline",111 % of control
same,T/C,[1],112 % of control and 114 % of control (2×)
same,T/C,"dose: 50.0 mg/kg/injection, schedule: Q01DX005 (iv), vehicle: saline",101 % of control
same,T/C,"dose: 55.5 mg/kg/injection, schedule: Q01DX009 (oral), vehicle: saline",111 % of control
same,T/C,"dose: 62.5 mg/kg/injection, schedule: Q03HX008 (ip), vehicle: saline",120 % of control
same,T/C,"dose: 83.3 mg/kg/injection, schedule: Q03HX024 (ip), vehicle: saline",162 % of control
same,T/C,"dose: 83.3 mg/kg/injection, schedule: Q04DX003 (ip), vehicle: saline",113 % of control
same,T/C,"dose: 100.0 mg/kg/injection, schedule: Q01DX005 (iv), vehicle: saline",106 % of control
same,T/C,"dose: 111.1 mg/kg/injection, schedule: Q01DX009 (oral), vehicle: saline",120 % of control
same,T/C,"dose: 133.0 mg/kg/injection, schedule: Q01DX009 (ip), vehicle: saline",152 % of control
same,T/C,"dose: 166.6 mg/kg/injection, schedule: Q03HX024 (ip), vehicle: saline",187 % of control
same,T/C,"dose: 166.6 mg/kg/injection, schedule: Q04DX003 (ip), vehicle: saline",120 % of control
same,T/C,"dose: 200.0 mg/kg/injection, schedule: Q01DX005 (iv), vehicle: saline",118 % of control
same,T/C,[2],154 % of control
same,T/C,"dose: 222.2 mg/kg/injection, schedule: Q01DX009 (ip), vehicle: saline",156 % of control
same,T/C,"dose: 250.0 mg/kg/injection, schedule: Q01DX001 (ip), vehicle: saline",114 % of control
same,T/C,"dose: 250.0 mg/kg/injection, schedule: Q01DX001 (iv), vehicle: saline",92 % of control
same,T/C,"dose: 300.0 mg/kg/injection, schedule: Q01DX009 (ip), vehicle: saline",170 % of control
same,T/C,"dose: 444.4 mg/kg/injection, schedule: Q01DX009 (ip), vehicle: saline",169 % of control
same,T/C,"dose: 444.4 mg/kg/injection, schedule: Q01DX009 (oral), vehicle: saline",155 % of control
same,T/C,"dose: 500.0 mg/kg/injection, schedule: Q01DX001 (ip), vehicle: saline",117 % of control
same,T/C,"dose: 500.0 mg/kg/injection, schedule: Q01DX001 (iv), vehicle: saline",102 % of control
same,T/C,"dose: 666.6 mg/kg/injection, schedule: Q04DX003 (ip), vehicle: saline",153 % of control
same,T/C,"dose: 888.8 mg/kg/injection, schedule: Q01DX009 (oral), vehicle: saline",195 % of control
same,T/C,"dose: 1000.0 mg/kg/injection, schedule: Q01DX001 (ip), vehicle: saline",119 % of control
ClC1=CCCC(C(Br)Br)C1 (stereo not drawn),T/C,[3],99 % of control
same,T/C,[4],100 % of control
same,T/C,[5],102 % of control
CC12CCC(O1)C1C(=O)NC(=O)C12 (stereo not drawn),T/C,[1],102 % of control
same,T/C,[6],108 % of control
same,T/C,[7],100 % of control
Cn1c(=O)n2n(c1=O)C1CCC2CC1,T/C,[1],98 % of control
same,T/C,[6],102 % of control
same,T/C,[7],100 % of control
CCOC(=O)C1C(=O)C(=O)OC1CC(C)C (stereo not drawn),T/C,"dose: 12.5 mg/kg/injection, schedule: Q01DX005 (ip), vehicle: Klucel (hydroxypropylcellulose) (HPC)",109 % of control
same,T/C,"dose: 25.0 mg/kg/injection, schedule: Q01DX005 (ip), vehicle: Klucel (hydroxypropylcellulose) (HPC)",103 % of control
same,T/C,"dose: 50.0 mg/kg/injection, schedule: Q01DX005 (ip), vehicle: Klucel (hydroxypropylcellulose) (HPC)",107 % of control and 113 % of control
NC(=O)N=Nc1ccc(Cl)c(Cl)c1,T/C,"dose: 50.0 mg/kg/injection, schedule: Q01DX005 (ip), vehicle: saline with Tween-80",100 % of control
same,T/C,"dose: 100.0 mg/kg/injection, schedule: Q01DX005 (ip), vehicle: saline with Tween-80",102 % of control
same,T/C,"dose: 200.0 mg/kg/injection, schedule: Q01DX005 (ip), vehicle: saline with Tween-80",102 % of control
CCCCCC[C@H]([C@H](C)O)n1cnc2c(N)ncnc21,T/C,"dose: 1.56 mg/kg/injection, schedule: Q01DX009 (ip), vehicle: Klucel (hydroxypropylcellulose) (HPC)",100 % of control
same,T/C,"dose: 3.12 mg/kg/injection, schedule: Q01DX009 (ip), vehicle: Klucel (hydroxypropylcellulose) (HPC)",100 % of control
same,T/C,"dose: 4.0 mg/kg/injection, schedule: Q01DX005 (ip), vehicle: Klucel (hydroxypropylcellulose) (HPC)",100 % of control
same,T/C,"dose: 6.25 mg/kg/injection, schedule: Q01DX009 (ip), vehicle: Klucel (hydroxypropylcellulose) (HPC)",98 % of control
same,T/C,"dose: 8.0 mg/kg/injection, schedule: Q01DX005 (ip), vehicle: Klucel (hydroxypropylcellulose) (HPC)",102 % of control
same,T/C,"dose: 12.5 mg/kg/injection, schedule: Q01DX009 (ip), vehicle: Klucel (hydroxypropylcellulose) (HPC)",105 % of control
same,T/C,"dose: 16.0 mg/kg/injection, schedule: Q01DX005 (ip), vehicle: Klucel (hydroxypropylcellulose) (HPC)",100 % of control
same,T/C,"dose: 25.0 mg/kg/injection, schedule: Q01DX009 (ip), vehicle: Klucel (hydroxypropylcellulose) (HPC)",105 % of control and 96 % of control
same,T/C,"dose: 32.0 mg/kg/injection, schedule: Q01DX005 (ip), vehicle: Klucel (hydroxypropylcellulose) (HPC)",104 % of control
same,T/C,[3],104 % of control and 96 % of control
same,T/C,"dose: 64.0 mg/kg/injection, schedule: Q01DX005 (ip), vehicle: Klucel (hydroxypropylcellulose) (HPC)",100 % of control
same,T/C,[4],98 % of control
same,T/C,[5],98 % of control
OC(Cc1cncc(CC(O)(C(F)(F)F)C(F)(F)F)n1)(C(F)(F)F)C(F)(F)F,T/C,[8],99 % of control
same,T/C,"dose: 100.0 mg/kg/injection, schedule: Q01DX009 (ip), vehicle: saline",98 % of control
same,T/C,[2],102 % of control
COC(=O)[C@@H]1c2cc3c(c(O)c2[C@@H](OC)C[C@@]1(C)O)C(=O)c1c(O)cc2c(c1C3=O)OC1O[C@@]2(C)[C@H](O)[C@@H](N(C)C)[C@@H]1O,T/C,"dose: 6.25 mg/kg/injection, schedule: Q01DX010 (ip), vehicle: saline",110 % of control
same,T/C,"dose: 12.5 mg/kg/injection, schedule: Q01DX009 (ip), vehicle: other",171 % of control
same,T/C,"dose: 12.5 mg/kg/injection, schedule: Q01DX009 (ip), vehicle: saline",156 % of control
same,T/C,"dose: 12.5 mg/kg/injection, schedule: Q01DX010 (ip), vehicle: saline",110 % of control
same,T/C,"dose: 25.0 mg/kg/injection, schedule: Q01DX009 (ip), vehicle: other",176 % of control
same,T/C,"dose: 25.0 mg/kg/injection, schedule: Q01DX009 (ip), vehicle: saline",159 % of control
same,T/C,"dose: 25.0 mg/kg/injection, schedule: Q01DX010 (ip), vehicle: saline",120 % of control
same,T/C,"dose: 50.0 mg/kg/injection, schedule: Q01DX009 (ip), vehicle: other",171 % of control
same,T/C,[8],98 % of control
same,T/C,"dose: 50.0 mg/kg/injection, schedule: Q01DX010 (ip), vehicle: saline",110 % of control
same,T/C,"dose: 50.0 mg/kg/injection, schedule: Q04DX003 (ip), vehicle: other",153 % of control
same,T/C,"dose: 50.0 mg/kg/injection, schedule: Q04DX003 (ip), vehicle: saline",150 % of control
same,T/C,"dose: 100.0 mg/kg/injection, schedule: Q04DX003 (ip), vehicle: other",158 % of control
same,T/C,"dose: 100.0 mg/kg/injection, schedule: Q04DX003 (ip), vehicle: saline",150 % of control
C[CH2][Pb]([CH2]C)([CH2]C)[O]C(=O)c1ccccc1,T/C,"dose: 0.75 mg/kg/injection, schedule: Q01DX009 (ip), vehicle: Klucel (hydroxypropylcellulose) (HPC)",113 % of control
same,T/C,"dose: 1.5 mg/kg/injection, schedule: Q01DX009 (ip), vehicle: Klucel (hydroxypropylcellulose) (HPC)",115 % of control
same,T/C,"dose: 3.0 mg/kg/injection, schedule: Q01DX009 (ip), vehicle: Klucel (hydroxypropylcellulose) (HPC)",123 % of control
same,T/C,"dose: 6.0 mg/kg/injection, schedule: Q01DX009 (ip), vehicle: Klucel (hydroxypropylcellulose) (HPC)",123 % of control
same,T/C,"dose: 12.0 mg/kg/injection, schedule: Q01DX009 (ip), vehicle: Klucel (hydroxypropylcellulose) (HPC)",97 % of control
O=C(NO)/C(CC(=O)c1ccc(O)cc1)=N\O,T/C,"dose: 60.0 mg/kg/injection, schedule: Q01DX005 (ip), vehicle: saline with Tween-80",104 % of control
same,T/C,"dose: 120.0 mg/kg/injection, schedule: Q01DX005 (ip), vehicle: saline with Tween-80",101 % of control
same,T/C,"dose: 240.0 mg/kg/injection, schedule: Q01DX005 (ip), vehicle: saline with Tween-80",105 % of control
